Laboratory results: patent US9295627B2 (priority 2011, dated 2016)
Like-named read-outs stand apart in the source and are kept apart here.

Legend:
[1] = Solubility in solvents such as water; assay type: physicochemical
Acute toxicity test = details: female, BALB/c, mouse, in vivo, ip
Method: Two grams of any one of the adenosine N1-oxide obtained in Experiment 1, the 3′-glucosyladesonine N1-oxide and 5′-glucosyladenosine N1-oxide obtained in Experiment 2, and the 5′-adenosine diphosphate N1-oxide and 5′-adenosine triphosphate N1-oxide obtained in Experiment 3 was dissolved in 100 mL of D-PBS (Dulbecco's Phosphate-Buffered Salines). The resulting solution was intraperitoneally administered to 10 BALB/c female mice, six-week-old, with an average body mass of 20 g each, commercialized by Charles River Laboratories Japan, Inc., Kanagawa, Japan, at a dose of one milliliter/head, followed by observation for 24 hours. As a control, only D-PBS was intraperitoneally administered to 10 BALB/c female mice, six-week-old, with an average body mass of 20 g each, commercialized by Charles River Laboratories Japan, Inc., Kanagawa, Japan, at a dose of one milliliter/head, followed by observation for 24 hours. Thereafter, each mouse was collected her blood and urine for measuring clinical test items as indexes for renal and liver functions. […] As a result, adenosine N1-oxide, 3′-glucosyladenosine N1-oxide, 5‘-glucosyladenosine N1-oxide, 5’-adenosinme diphosphate N1-oxide, and 5′-adenosine triphosphate N1-oxide have an LD50 of at least 1,000 mg/kg, respectively. Thus, these compounds are judged as substances safely administrable to humans.

[2] = system: medium periodontal diseases; experiment: Volunteer test 2: tooth mobility after mouthwash use, concentration series; assay type: in vivo, human; details: aqueous mouthwash, % by mass, Experiment 6
Text: • A: A distinct improvement in tooth mobility is observed on a tooth mobility test (or periodontometry) with a pincette compared with that before initiating the test; • B: Somewhat improvement in tooth mobility is observed on a tooth mobility test with a pincette compared with that before initiating the test; and • C: No improvement or rather aggravation is observed on a tooth mobility test with a pincette compared with that before initiating the test.
For adenosine N1-oxide, which had marked the highest improvement effect on periodontal diseases in Experiment 5, it was examined in more detail for its improvement action on periodontal diseases: Eight females, 20- to 30-year-old, as subjects, who were healthy except for suffering from medium periodontal diseases (with a periodontal pocket depth of 3 mm or deeper but less than 6 mm), were subjected to a volunteer test similarly as in Experiment 5 except for using six types of aqueous solutions containing 0.001 to 7.5% adenosine N1-oxide and setting a test period of seven months. […]
The subjects were allowed to brush their teeth with the same toothpaste as used in Experiment 5. […] Before initiating the test, a dental hygienist under a doctor's guidance evaluated the conditions of gingivitis for each subject […] based on the same criteria as shown in Experiment 5.

[3] = 1000 mg/kg, intraperitoneal, 2 g in 100 mL D-PBS, one milliliter/head, mice of 20 g, observation for 24 hours, read-out: LD50

Nc1c2ncn(C3OC(COP(=O)(O)OP(=O)(O)O)C(O)C3O)c2nc[n+]1[O-] (centres unmarked) [5′-adenosine diphosphate N1-oxide]
solubility in solvents such as water compared to adenosine N1-oxide [1]: higher solubility

Nc1c2ncn([C@@H]3O[C@H](CO[C@H]4O[C@H](CO)[C@@H](O)[C@H](O)[C@H]4O)[C@@H](O)[C@H]3O)c2nc[n+]1[O-]
LD50 at 24 h (Acute toxicity test; [3]): ≥ 1000 mg/kg | solubility in solvents such as water compared to adenosine N1-oxide [1]: higher solubility

Nc1c2ncn([C@@H]3O[C@H](CO)[C@@H](O[C@H]4O[C@H](CO)[C@@H](O)[C@H](O)[C@H]4O)[C@H]3O)c2nc[n+]1[O-]
LD50 at 24 h (Acute toxicity test; [3]): ≥ 1000 mg/kg | solubility in solvents such as water compared to adenosine N1-oxide [1]: higher solubility

Nc1c2ncn([C@@H]3O[C@H](COP(=O)(O)OP(=O)(O)OP(=O)(O)O)[C@@H](O)[C@H]3O)c2nc[n+]1[O-] [5′-adenosine triphosphate N1-oxide]
solubility in solvents such as water compared to adenosine N1-oxide [1]: higher solubility

Nc1c2ncn([C@@H]3O[C@H](CO)[C@@H](O)[C@H]3O)c2nc[n+]1[O-] [adenosine N1-oxide]
LD50 at 24 h (Acute toxicity test): ≥ 1000 mg/kg | concentrations at which periodontal diseases are distinctly, effectively prevented and/or treated [2]: ≥ 0.5%
